Experimental data taken from paper PMC7265341, “Quantifying CDK inhibitor selectivity in live cells” (Nature Communications, 2020).
Like-named read-outs stand apart in the source and are kept apart here.

How the values were obtained:
CDK11A/Cyclin L2 = molecular target: T1, CDK11A/Cyclin L2 (Homo sapiens, UniProt Q9UQ88); assay: NanoBRET live-cell target engagement, CDK11A-NanoLuc/Cyclin L2 in HEK-293; assay type: binding; conditions: 10µM
T1 sequence (Q9UQ88 1-783): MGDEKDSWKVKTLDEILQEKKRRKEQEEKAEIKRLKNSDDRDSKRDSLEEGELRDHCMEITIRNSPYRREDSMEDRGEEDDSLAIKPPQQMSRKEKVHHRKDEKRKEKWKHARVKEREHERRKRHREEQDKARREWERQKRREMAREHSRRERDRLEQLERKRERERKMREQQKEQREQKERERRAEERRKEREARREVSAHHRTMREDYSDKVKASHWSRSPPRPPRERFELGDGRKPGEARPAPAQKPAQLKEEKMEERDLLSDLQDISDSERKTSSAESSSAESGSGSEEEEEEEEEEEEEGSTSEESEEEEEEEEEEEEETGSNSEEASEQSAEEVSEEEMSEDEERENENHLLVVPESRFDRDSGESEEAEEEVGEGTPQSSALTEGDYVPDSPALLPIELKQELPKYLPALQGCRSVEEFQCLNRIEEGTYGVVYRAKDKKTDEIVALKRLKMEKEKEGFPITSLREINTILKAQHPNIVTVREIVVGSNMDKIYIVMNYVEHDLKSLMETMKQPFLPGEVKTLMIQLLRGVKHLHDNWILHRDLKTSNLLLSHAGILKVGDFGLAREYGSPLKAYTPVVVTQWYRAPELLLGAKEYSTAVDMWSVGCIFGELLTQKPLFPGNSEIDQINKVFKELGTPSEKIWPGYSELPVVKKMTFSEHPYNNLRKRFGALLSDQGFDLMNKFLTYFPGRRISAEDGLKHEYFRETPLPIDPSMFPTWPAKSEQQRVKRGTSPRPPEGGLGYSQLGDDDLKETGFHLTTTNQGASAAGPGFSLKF

CDK11B/Cyclin L2 = CDK11B/Cyclin L2 (Homo sapiens, UniProt P21127); assay: NanoBRET live-cell target engagement, CDK11B-NanoLuc/Cyclin L2 in HEK-293; assay type: binding; conditions: 10µM
CDK12/Cyclin K = CDK12/Cyclin K (Homo sapiens, UniProt Q9NYV4); assay: NanoBRET live-cell target engagement, CDK12-NanoLuc/Cyclin K in HEK-293; assay type: binding; conditions: 10µM
Sequence of CDK12/Cyclin K (Q9NYV4 1-1481 isoform Q9NYV4-2): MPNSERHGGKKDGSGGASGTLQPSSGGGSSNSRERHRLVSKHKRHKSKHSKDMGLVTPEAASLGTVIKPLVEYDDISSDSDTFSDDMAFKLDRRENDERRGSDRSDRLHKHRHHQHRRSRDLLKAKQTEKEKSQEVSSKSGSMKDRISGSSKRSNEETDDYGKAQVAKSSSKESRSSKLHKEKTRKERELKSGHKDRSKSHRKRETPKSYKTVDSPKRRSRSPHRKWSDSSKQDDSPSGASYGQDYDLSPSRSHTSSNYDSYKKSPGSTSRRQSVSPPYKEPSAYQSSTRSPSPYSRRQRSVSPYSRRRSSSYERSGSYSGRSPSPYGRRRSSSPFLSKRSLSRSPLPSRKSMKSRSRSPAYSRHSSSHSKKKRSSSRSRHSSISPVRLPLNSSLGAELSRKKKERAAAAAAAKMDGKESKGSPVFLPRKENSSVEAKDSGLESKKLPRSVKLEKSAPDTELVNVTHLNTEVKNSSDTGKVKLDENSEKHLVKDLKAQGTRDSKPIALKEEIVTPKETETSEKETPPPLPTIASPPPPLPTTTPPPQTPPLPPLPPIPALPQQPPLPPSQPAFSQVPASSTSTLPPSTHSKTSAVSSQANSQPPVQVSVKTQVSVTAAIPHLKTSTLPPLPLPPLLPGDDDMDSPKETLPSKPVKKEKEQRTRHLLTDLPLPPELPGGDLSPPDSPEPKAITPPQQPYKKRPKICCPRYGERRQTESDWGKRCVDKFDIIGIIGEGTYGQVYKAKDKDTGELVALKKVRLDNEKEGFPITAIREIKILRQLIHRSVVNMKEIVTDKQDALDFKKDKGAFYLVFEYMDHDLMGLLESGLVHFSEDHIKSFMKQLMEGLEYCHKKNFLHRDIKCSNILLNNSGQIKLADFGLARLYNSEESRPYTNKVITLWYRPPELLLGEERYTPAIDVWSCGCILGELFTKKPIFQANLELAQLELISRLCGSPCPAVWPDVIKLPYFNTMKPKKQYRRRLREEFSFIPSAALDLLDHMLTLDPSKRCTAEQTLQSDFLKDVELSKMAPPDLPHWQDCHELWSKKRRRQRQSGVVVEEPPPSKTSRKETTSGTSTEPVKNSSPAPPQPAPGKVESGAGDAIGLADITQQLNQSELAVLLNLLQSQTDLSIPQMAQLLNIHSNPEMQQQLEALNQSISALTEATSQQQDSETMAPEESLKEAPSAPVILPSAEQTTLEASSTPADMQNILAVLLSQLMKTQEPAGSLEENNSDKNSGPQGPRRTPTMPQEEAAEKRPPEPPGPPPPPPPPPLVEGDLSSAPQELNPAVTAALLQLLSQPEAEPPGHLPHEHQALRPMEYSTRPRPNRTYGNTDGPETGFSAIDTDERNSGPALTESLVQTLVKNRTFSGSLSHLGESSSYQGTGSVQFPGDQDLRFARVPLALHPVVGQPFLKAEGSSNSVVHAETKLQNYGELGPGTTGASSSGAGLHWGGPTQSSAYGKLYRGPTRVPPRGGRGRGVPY
Sequence of CDK12/Cyclin K (O75909 whole entry partner): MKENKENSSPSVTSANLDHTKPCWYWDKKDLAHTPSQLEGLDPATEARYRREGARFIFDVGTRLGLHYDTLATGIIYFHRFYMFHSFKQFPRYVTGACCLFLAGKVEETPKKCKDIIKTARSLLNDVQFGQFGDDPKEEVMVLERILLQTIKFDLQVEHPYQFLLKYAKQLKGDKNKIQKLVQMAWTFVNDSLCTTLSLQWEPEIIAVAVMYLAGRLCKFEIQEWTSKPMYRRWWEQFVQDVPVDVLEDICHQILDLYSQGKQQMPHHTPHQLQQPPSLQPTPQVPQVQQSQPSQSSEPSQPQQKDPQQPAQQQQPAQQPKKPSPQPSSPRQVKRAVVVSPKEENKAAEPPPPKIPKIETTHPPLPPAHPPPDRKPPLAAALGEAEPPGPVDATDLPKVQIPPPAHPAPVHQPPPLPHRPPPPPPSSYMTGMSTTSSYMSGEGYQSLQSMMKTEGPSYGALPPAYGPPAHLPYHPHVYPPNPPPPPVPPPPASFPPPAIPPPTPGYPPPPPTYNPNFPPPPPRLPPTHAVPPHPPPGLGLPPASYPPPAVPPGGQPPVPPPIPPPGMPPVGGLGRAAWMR

CDK13/Cyclin K = CDK13/Cyclin K (Homo sapiens, UniProt Q14004); assay: NanoBRET live-cell target engagement, CDK13-NanoLuc/Cyclin K in HEK-293; assay type: binding; conditions: CDK13/K, 10µM
CDK15/Cyclin Y = CDK15/Cyclin Y (Homo sapiens, UniProt Q96Q40); assay: NanoBRET live-cell target engagement, NanoLuc-CDK15/Cyclin Y in HEK-293; assay type: binding; conditions: for IC50: CDK15/Y
Sequence of CDK15/Cyclin Y (Q96Q40 whole entry): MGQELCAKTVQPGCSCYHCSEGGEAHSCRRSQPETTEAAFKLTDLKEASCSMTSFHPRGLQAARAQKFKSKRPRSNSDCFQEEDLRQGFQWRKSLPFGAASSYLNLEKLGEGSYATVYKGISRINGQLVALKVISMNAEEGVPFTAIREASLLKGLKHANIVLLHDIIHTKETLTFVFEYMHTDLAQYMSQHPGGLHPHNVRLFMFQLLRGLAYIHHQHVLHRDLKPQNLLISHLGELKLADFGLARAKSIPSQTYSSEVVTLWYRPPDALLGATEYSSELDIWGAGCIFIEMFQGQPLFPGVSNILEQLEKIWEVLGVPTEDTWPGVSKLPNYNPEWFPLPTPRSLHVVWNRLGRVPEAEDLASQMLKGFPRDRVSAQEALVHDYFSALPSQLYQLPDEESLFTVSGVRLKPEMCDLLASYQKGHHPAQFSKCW
Sequence of CDK15/Cyclin Y (Q8ND76 whole entry partner): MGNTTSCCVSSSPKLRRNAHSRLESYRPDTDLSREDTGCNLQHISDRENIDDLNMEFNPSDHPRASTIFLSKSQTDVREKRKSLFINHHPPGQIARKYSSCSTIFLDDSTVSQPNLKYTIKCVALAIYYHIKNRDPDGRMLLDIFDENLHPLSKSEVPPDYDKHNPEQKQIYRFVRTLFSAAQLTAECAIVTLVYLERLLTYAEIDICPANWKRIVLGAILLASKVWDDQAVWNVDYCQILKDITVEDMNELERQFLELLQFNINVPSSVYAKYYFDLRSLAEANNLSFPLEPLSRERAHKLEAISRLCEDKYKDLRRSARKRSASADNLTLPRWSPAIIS

CDK16/Cyclin Y = CDK16/Cyclin Y (Homo sapiens, UniProt Q00536); assay: NanoBRET live-cell target engagement, CDK16-NanoLuc/Cyclin Y in HEK-293; assay type: binding; conditions: for IC50: CDK16/Y
Sequence of CDK16/Cyclin Y (Q00536 whole entry): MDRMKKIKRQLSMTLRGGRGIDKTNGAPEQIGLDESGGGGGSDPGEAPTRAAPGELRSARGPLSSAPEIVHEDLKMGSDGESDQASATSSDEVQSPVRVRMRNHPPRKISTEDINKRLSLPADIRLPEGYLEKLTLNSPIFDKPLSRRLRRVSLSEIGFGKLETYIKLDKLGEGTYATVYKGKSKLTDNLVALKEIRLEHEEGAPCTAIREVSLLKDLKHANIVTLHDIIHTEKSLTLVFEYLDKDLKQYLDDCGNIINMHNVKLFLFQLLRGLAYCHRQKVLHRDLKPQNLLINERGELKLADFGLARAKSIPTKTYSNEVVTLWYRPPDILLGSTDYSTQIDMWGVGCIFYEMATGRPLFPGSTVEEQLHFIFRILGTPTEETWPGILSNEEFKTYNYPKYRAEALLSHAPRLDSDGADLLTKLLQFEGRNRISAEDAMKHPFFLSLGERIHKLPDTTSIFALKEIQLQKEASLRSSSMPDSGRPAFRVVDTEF
Sequence of CDK16/Cyclin Y (Q8ND76 whole entry partner): as the sequence (Q8ND76 whole entry partner) above

CDK17/Cyclin Y = CDK17/Cyclin Y (Homo sapiens, UniProt Q00537); assay: NanoBRET live-cell target engagement, CDK17-NanoLuc/Cyclin Y in HEK-293; assay type: binding; conditions: 10µM
Sequence of CDK17/Cyclin Y (Q00537 whole entry): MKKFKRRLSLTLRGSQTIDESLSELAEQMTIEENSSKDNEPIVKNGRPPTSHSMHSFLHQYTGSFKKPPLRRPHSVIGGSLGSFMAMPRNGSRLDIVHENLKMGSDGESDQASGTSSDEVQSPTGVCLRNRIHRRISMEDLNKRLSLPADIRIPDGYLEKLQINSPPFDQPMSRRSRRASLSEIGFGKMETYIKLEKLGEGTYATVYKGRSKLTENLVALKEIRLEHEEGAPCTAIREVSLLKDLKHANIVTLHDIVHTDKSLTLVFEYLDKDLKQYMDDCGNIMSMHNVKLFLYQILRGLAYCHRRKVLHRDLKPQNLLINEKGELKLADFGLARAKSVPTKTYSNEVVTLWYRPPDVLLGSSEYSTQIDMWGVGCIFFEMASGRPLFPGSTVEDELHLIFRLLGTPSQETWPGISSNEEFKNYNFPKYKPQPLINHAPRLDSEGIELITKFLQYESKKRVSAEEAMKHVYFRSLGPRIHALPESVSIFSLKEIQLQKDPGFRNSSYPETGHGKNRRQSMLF
Sequence of CDK17/Cyclin Y (Q8ND76 whole entry partner): as the sequence (Q8ND76 whole entry partner) above

CDK18/Cyclin Y = CDK18/Cyclin Y (Homo sapiens, UniProt Q07002); assay: NanoBRET live-cell target engagement, CDK18-NanoLuc/Cyclin Y in HEK-293; assay type: binding; conditions: 10µM
Sequence of CDK18/Cyclin Y (Q07002 whole entry): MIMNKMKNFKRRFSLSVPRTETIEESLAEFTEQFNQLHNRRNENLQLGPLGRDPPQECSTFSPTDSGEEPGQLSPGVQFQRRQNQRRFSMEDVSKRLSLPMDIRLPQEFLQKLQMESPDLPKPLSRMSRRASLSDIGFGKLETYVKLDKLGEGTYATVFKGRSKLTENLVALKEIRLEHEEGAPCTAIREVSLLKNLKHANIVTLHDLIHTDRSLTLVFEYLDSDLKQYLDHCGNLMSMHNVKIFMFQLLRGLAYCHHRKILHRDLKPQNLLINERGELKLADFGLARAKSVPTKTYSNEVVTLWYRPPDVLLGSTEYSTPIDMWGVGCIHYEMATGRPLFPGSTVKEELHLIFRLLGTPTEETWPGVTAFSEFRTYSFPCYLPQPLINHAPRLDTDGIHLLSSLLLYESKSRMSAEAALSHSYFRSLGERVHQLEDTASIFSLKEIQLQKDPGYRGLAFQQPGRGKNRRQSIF
Sequence of CDK18/Cyclin Y (Q8ND76 whole entry partner): as the sequence (Q8ND76 whole entry partner) above

CDK20/Cyclin H = CDK20/Cyclin H (Homo sapiens, UniProt Q8IZL9); assay: NanoBRET live-cell target engagement, NanoLuc-CDK20/Cyclin H in HEK-293; assay type: binding; conditions: 10µM
CDK19/Cyclin C = CDK19/Cyclin C (Homo sapiens, UniProt Q9BWU1); assay: NanoBRET live-cell target engagement, NanoLuc-CDK19/Cyclin C in HEK-293; conditions: 10µM
CDK10/Cyclin L2 = CDK10/Cyclin L2 (Homo sapiens, UniProt Q15131); assay: NanoBRET live-cell target engagement, CDK10-NanoLuc/Cyclin L2 in HEK-293; conditions: 10µM
Sequence of CDK10/Cyclin L2 (Q15131 whole entry): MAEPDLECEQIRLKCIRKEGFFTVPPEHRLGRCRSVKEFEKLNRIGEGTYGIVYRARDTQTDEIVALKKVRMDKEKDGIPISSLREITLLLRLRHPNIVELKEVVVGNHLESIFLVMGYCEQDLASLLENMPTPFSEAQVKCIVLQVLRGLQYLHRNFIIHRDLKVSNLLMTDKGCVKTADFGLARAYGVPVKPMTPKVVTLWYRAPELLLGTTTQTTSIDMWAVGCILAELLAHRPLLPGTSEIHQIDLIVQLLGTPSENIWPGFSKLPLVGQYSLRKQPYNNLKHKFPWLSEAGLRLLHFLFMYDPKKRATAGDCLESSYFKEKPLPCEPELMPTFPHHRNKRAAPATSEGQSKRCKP

[1] = n=3 average ± SEM, n=2 average to 2 significant figures, read-out: IC50 (nM) Average*
[2] = read-out: IC50 (nM) Replicate 1
[3] = read-out: IC50 (nM) Replicate 2
[4] = read-out: IC50 (nM) Replicate 3

C[C@H]1CC[C@H](n2c3cnccc3c3cnc(Nc4ccc5c(n4)CCN(C(=O)CO)C5)nc32)CC1 [AMG 925]
inhibition at 10 µM (CDK11A/Cyclin L2; read-out: Inhibition at 10µM (%) Replicate 1, CDK11a/L2): -0.9%
inhibition at 10 µM (CDK11A/Cyclin L2; read-out: Inhibition at 10µM (%) Replicate 2, CDK11a/L2): 14.4%
inhibition at 10 µM (CDK11B/Cyclin L2; read-out: Inhibition at 10µM (%) Average, CDK11b/L2, average of replicates): 8.5%
inhibition at 10 µM (CDK11B/Cyclin L2; read-out: Inhibition at 10µM (%) Replicate 1, CDK11b/L2): 5.1%
inhibition at 10 µM (CDK11B/Cyclin L2; read-out: Inhibition at 10µM (%) Replicate 2, CDK11b/L2): 11.9%
inhibition at 10 µM (CDK12/Cyclin K; read-out: Inhibition at 10µM (%) Average, CDK12/K, average of replicates): 8%
inhibition at 10 µM (CDK12/Cyclin K; read-out: Inhibition at 10µM (%) Replicate 1, CDK12/K): 7.8%
inhibition at 10 µM (CDK12/Cyclin K; read-out: Inhibition at 10µM (%) Replicate 2, CDK12/K): 8.2%
inhibition at 10 µM (CDK13/Cyclin K; average of replicates, read-out: Inhibition at 10µM (%) Average): -2.5%
inhibition at 10 µM (CDK13/Cyclin K; read-out: Inhibition at 10µM (%) Replicate 1): 3.8%
inhibition at 10 µM (CDK13/Cyclin K; read-out: Inhibition at 10µM (%) Replicate 2): -8.8%
IC50 (CDK15/Cyclin Y; [1]): 820 ± 50 nM
IC50 (CDK15/Cyclin Y; [2]): 842 nM
IC50 (CDK15/Cyclin Y; [3]): 720 nM
IC50 (CDK15/Cyclin Y; [4]): 901 nM
inhibition at 10 µM (CDK15/Cyclin Y; read-out: Inhibition at 10µM (%) Average, CDK15/Y, average of replicates): 55.3%
inhibition at 10 µM (CDK15/Cyclin Y; read-out: Inhibition at 10µM (%) Replicate 1, CDK15/Y): 50.5%
inhibition at 10 µM (CDK15/Cyclin Y; read-out: Inhibition at 10µM (%) Replicate 2, CDK15/Y): 60.1%
IC50 (CDK16/Cyclin Y; [1]): 200 ± 100 nM
IC50 (CDK16/Cyclin Y; [2]): 103 nM
IC50 (CDK16/Cyclin Y; [3]): 420 nM
IC50 (CDK16/Cyclin Y; [4]): 188 nM
inhibition at 10 µM (CDK16/Cyclin Y; read-out: Inhibition at 10µM (%) Replicate 1, CDK16/Y): 64.2%
inhibition at 10 µM (CDK16/Cyclin Y; read-out: Inhibition at 10µM (%) Replicate 2, CDK16/Y): 56.2%
inhibition at 10 µM (CDK17/Cyclin Y; read-out: Inhibition at 10µM (%) Average, CDK17/Y, average of replicates): 43.6%
inhibition at 10 µM (CDK17/Cyclin Y; read-out: Inhibition at 10µM (%) Replicate 1, CDK17/Y): 42.5%
inhibition at 10 µM (CDK17/Cyclin Y; read-out: Inhibition at 10µM (%) Replicate 2, CDK17/Y): 44.7%
inhibition at 10 µM (CDK18/Cyclin Y; read-out: Inhibition at 10µM (%) Average, CDK18/Y, average of replicates): 28.7%
inhibition at 10 µM (CDK18/Cyclin Y; read-out: Inhibition at 10µM (%) Replicate 1, CDK18/Y): 11.9%
inhibition at 10 µM (CDK18/Cyclin Y; read-out: Inhibition at 10µM (%) Replicate 2, CDK18/Y): 45.6%
inhibition at 10 µM (CDK20/Cyclin H; read-out: Inhibition at 10µM (%) Replicate 1, CDK20/H): 24.8%
inhibition at 10 µM (CDK20/Cyclin H; read-out: Inhibition at 10µM (%) Replicate 2, CDK20/H): 6.8%
inhibition at 10 µM (CDK19/Cyclin C; read-out: Inhibition at 10µM (%) Average, CDK19/C, average of replicates): 16.1%
inhibition at 10 µM (CDK19/Cyclin C; read-out: Inhibition at 10µM (%) Replicate 1, CDK19/C): 17.8%
inhibition at 10 µM (CDK19/Cyclin C; read-out: Inhibition at 10µM (%) Replicate 2, CDK19/C): 14.4%
inhibition at 10 µM (CDK10/Cyclin L2; read-out: Inhibition at 10µM (%) Average, CDK10/L2, average of replicates): 2.1%
inhibition at 10 µM (CDK10/Cyclin L2; read-out: Inhibition at 10µM (%) Replicate 1, CDK10/L2): 1.6%
inhibition at 10 µM (CDK10/Cyclin L2; read-out: Inhibition at 10µM (%) Replicate 2, CDK10/L2): 2.6%
